Experimental data reported in patent US20150176022A1, “HERBICIDE-RESISTANT SUNFLOWER PLANTS, POLYNUCLEOTIDES ENCODING HERBICIDE=RESISTANT ACETO HYDROXY ACID SYNTHASE LARGE SUBUNIT PROTEINS, AND METHODS OF USE” (priority 2013, published 2015).
“And” between values parts separate entries of the source, which are not always exact repeats. Equal entries are not always repeated.

Tests used:
Assay type in all cases: in vivo, Helianthus annuus
[1] = system: Clearfield-Sunflower variety A; assay: Greenhouse spray test, injury rating (Example 5); details: Imazapyr 240 gm ai/ha, 14 DAT, scale 0=no injury to 9=dead plant
From the text: (§1) Sunflower lines S4897, Clearfield® sunflower varieties A, B, C and a conventional non-Clearfield variety were sprayed with three rates of imazamox (Raptor™), 100, 200 and 300 gm ai/ha plus 0.5% Sun It II and two rates of imazapyr (Arsenal™) 160 and 360 gm ai/ha plus 0.5% Sun It II when the plants were at the two to three leaf stage. Ratings were taken at 14 days after application (DAT) for injury. Injury was rated on a scale from 0 to 9 where 0=no injury to 9=dead plant. Twelve plants were sprayed per herbicide/rate treatment. Statistical analysis was conducted with STATGRAPHICS Plus 5.0 by using ANOVA and LSD procedures.
(§2) After plants were sprayed, it was realized that a height difference between S4897 and other sunflower varieties would have impacted the actual herbicide dose that was delivered. The spray boom height had been calibrated against S4897 and since the other varieties were taller and closer to the boom they would have received a greater dose of herbicide. Rates were recalibrated for the other varieties to determine the approximate dose they would have received. Assessments were made as presented in Table 2 since it was not possible to make a direct rate comparison due to the effect of the height. For example injury scores were compare for S4897 treated imazamox rate 100 gm ai/ha to the other varieties treated at 75 gm ai/ha. The treatment dose of 300 gm ai/ha for line S4897 was equivalent to the treatment of 200 gm ai/ha for the other varieties, which […].

[2] = system: Clearfield-Sunflower variety B; assay: Greenhouse spray test, injury rating (Example 5); details: Imazapyr 240 gm ai/ha, 14 DAT, scale 0=no injury to 9=dead plant
From the text: as §1, §2

[3] = system: Clearfield-Sunflower variety C; assay: Greenhouse spray test, injury rating (Example 5); details: Imazapyr 240 gm ai/ha, 14 DAT, scale 0=no injury to 9=dead plant
From the text: as §1, §2

[4] = system: Conventional non-Clearfield sunflower variety; assay: Greenhouse spray test, injury rating (Example 5); details: Imazapyr 240 gm ai/ha, 14 DAT, scale 0=no injury to 9=dead plant
From the text: as §1, §2

Sunflower line S4897 = assay: Greenhouse spray test, injury rating (Example 5); details: Imazapyr 360 gm ai/ha, 14 DAT, scale 0=no injury to 9=dead plant
From the text: as §1, §2

[5] = system: sunflower genotypes carrying the A205V mutation event; assay: Greenhouse whole-plant imazapir dose response (Example 8), group mean; details: 14 DAT; for biomass, Dif with control (reduction), A205V / plant height, Dif with Control (height reduction), A205V / root dry weight, Dif with control (reduction), A205V: A205V mean; for biomass accumulation (% of untreated), Mean A205V / root dry weight (% of untreated), Mean A205V / plant height (% of untreated), Mean A205V: mean of six A205V genotypes; for Phytotoxicity Index, Mean A205V: mean of three A205V genotypes
Experimental: A greenhouse study was conducted to quantify and contrast the imazapir sensitivity of the mutants A122T and A205V in different genetic backgrounds at the whole plant level in sunflower. Seeds of the different sunflower lines that were used in this study were obtained under field conditions.
Seeds were sown in Petri dishes and, after germination, plantlets were transplanted to pots of 10 cm of diameter in a potting media consisting of equal parts of vermiculite, soil and sand. Plants were grown in a greenhouse under natural light conditions supplemented with 400 W sodium halide lamps to provide a 16 hrs daylength. Day/night temperatures were 25 and 20° C., respectively. At the V2 stage 10 plants of each genotype were randomly assigned to each treatment consisting of […] imazapir doses (0, 40, 80, 160, 240, 320, 400 and 480 g ai/ha), and a zero-time biomass determination. Experiment was arranged as a randomized block design with a full factorial (sunflower line×treatment) arrangement of treatments and 10 replications.
On the day of herbicide application ten plants of each genotype were cut at the cotyledonal node and dried at 60° C. for 48 hrs zero-time for dried weight determination. […] Height was determined as the distance between the cotyledonal node and the apex of each plant. For root biomass determination, each plant was taken from the pot and the potting media was washed out from the roots. Above ground biomass data from each line were converted to biomass accumulation after application by subtracting the appropriate average zero-time biomass from each sample. Dry biomass data were converted to percentages of the untreated control plants within each line to allow direct comparisons between groups.

SMILES: CC(C)C1(C)N=C(c2ncccc2C(=O)O)NC1=O (stereo not drawn) [imazapir, imazapyr]
- Injury [1]: 5.0 c
- Injury [2]: 4.3 b
- Injury [3]: 4.9 c
- Injury [4]: 8.2 days
- Injury (Sunflower line S4897; listed as Imazapyr): 0.8 a
- Injury (Sunflower line S4897; listed as imazapyr): very little injury
- biomass, Dif with control (reduction), A205V ([5]; 0.5× (40 g ai/ha)): 5.5%
- plant height, Dif with Control (height reduction), A205V ([5]; 0.5× (40 g ai/ha)): 5.6%
- root dry weight, Dif with control (reduction), A205V ([5]; 0.5× (40 g ai/ha)): 12.8%
- biomass, Dif with control (reduction), A205V ([5]; 1× (80 g ai/ha)): 17.8%
- plant height, Dif with Control (height reduction), A205V ([5]; 1× (80 g ai/ha)): 10.8%
- root dry weight, Dif with control (reduction), A205V ([5]; 1× (80 g ai/ha)): 29.2%
- biomass, Dif with control (reduction), A205V ([5]; 2× (160 g ai/ha)): 38.4%
- plant height, Dif with Control (height reduction), A205V ([5]; 2× (160 g ai/ha)): 30.8%
- root dry weight, Dif with control (reduction), A205V ([5]; 2× (160 g ai/ha)): 49.4%
- biomass, Dif with control (reduction), A205V ([5]; 3× (240 g ai/ha)): 52.4%
- plant height, Dif with Control (height reduction), A205V ([5]; 3× (240 g ai/ha)): 49.6%
- root dry weight, Dif with control (reduction), A205V ([5]; 3× (240 g ai/ha)): 60.8%
- biomass, Dif with control (reduction), A205V ([5]; 4× (320 g ai/ha)): 64.6%
- plant height, Dif with Control (height reduction), A205V ([5]; 4× (320 g ai/ha)): 66.3%
- root dry weight, Dif with control (reduction), A205V ([5]; 4× (320 g ai/ha)): 68.9%
- biomass, Dif with control (reduction), A205V ([5]; 5× (400 g ai/ha)): 67.6%
- plant height, Dif with Control (height reduction), A205V ([5]; 5× (400 g ai/ha)): 68.0%
- root dry weight, Dif with control (reduction), A205V ([5]; 5× (400 g ai/ha)): 69.3%
- biomass, Dif with control (reduction), A205V ([5]; 6× (480 g ai/ha)): 70.0%
- plant height, Dif with Control (height reduction), A205V ([5]; 6× (480 g ai/ha)): 68.9% and 69.8%
- root dry weight, Dif with control (reduction), A205V ([5]; 6× (480 g ai/ha)): 75.6%
- biomass accumulation (% of untreated), Mean A205V ([5]; 0.5× (40 g ai/ha)): 94.5%
- root dry weight (% of untreated), Mean A205V ([5]; 0.5× (40 g ai/ha)): 87.2%
- biomass accumulation (% of untreated), Mean A205V ([5]; 1× (80 g ai/ha)): 82.2%
- root dry weight (% of untreated), Mean A205V ([5]; 1× (80 g ai/ha)): 70.8%
- biomass accumulation (% of untreated), Mean A205V ([5]; 2× (160 g ai/ha)): 61.6%
- plant height (% of untreated), Mean A205V ([5]; 2× (160 g ai/ha)): 69.2%
- root dry weight (% of untreated), Mean A205V ([5]; 2× (160 g ai/ha)): 50.6%
- biomass accumulation (% of untreated), Mean A205V ([5]; 3× (240 g ai/ha)): 47.6%
- plant height (% of untreated), Mean A205V ([5]; 3× (240 g ai/ha)): 50.4%
- root dry weight (% of untreated), Mean A205V ([5]; 3× (240 g ai/ha)): 39.2%
- biomass accumulation (% of untreated), Mean A205V ([5]; 4× (320 g ai/ha)): 35.4%
- plant height (% of untreated), Mean A205V ([5]; 4× (320 g ai/ha)): 33.7%
- root dry weight (% of untreated), Mean A205V ([5]; 4× (320 g ai/ha)): 31.1%
- biomass accumulation (% of untreated), Mean A205V ([5]; 5× (400 g ai/ha)): 32.4%
- plant height (% of untreated), Mean A205V ([5]; 5× (400 g ai/ha)): 32.0%
- root dry weight (% of untreated), Mean A205V ([5]; 5× (400 g ai/ha)): 30.7%
- biomass accumulation (% of untreated), Mean A205V ([5]; 6× (480 g ai/ha)): 30.0%
- plant height (% of untreated), Mean A205V ([5]; 6× (480 g ai/ha)): 30.2%
- root dry weight (% of untreated), Mean A205V ([5]; 6× (480 g ai/ha)): 24.4%
- Phytotoxicity Index, Mean A205V ([5]; 2× (160 g ai/ha)): 2.2
- Phytotoxicity Index, Mean A205V ([5]; 3× (240 g ai/ha)): 5.1
- Phytotoxicity Index, Mean A205V ([5]; 4× (320 g ai/ha)): 7.4
- Phytotoxicity Index, Mean A205V ([5]; 5× (400 g ai/ha)): 8.2
- Phytotoxicity Index, Mean A205V ([5]; 6× (480 g ai/ha)): 8.2
